Data as given in patent publication US20260070945A1, “MACROCYCLIC IMMUNOMODULATORS” (Bristol-Myers Squibb Company, priority 2022, published 2026).
*1 amine or outer side, *2 acyl side, *3 side chain or, on linkers, in order; H or OH if unused. Where a SMILES comes first, the peptide text is derived from it. Bridges are numbered along the chain shown (N, C = ends). [ ]: non-standard residue; d: D form. The star is where a group is joined. Trp(1-CH2COOH) = N[C@@H](Cc1cn(CC(=O)O)c2ccccc12)C(=O)O; Phe(4-COOH) = N[C@@H](Cc1ccc(C(=O)O)cc1)C(=O)O; Bip = N[C@@H](Cc1ccc(-c2ccccc2)cc1)C(=O)O; Phe(3-CN) = N#Cc1cccc(C[C@H](N)C(=O)O)c1; Phe(4-CN) = N#Cc1ccc(C[C@H](N)C(=O)O)cc1; Phe(4-NH2) = Nc1ccc(C[C@H](N)C(=O)O)cc1; Phe(3-F) = N[C@@H](Cc1cccc(F)c1)C(=O)O; Phe(3-Me) = Cc1cccc(C[C@H](N)C(=O)O)c1; Phe(4-Me) = Cc1ccc(C[C@H](N)C(=O)O)cc1; X2 = CC(C)=C[C@H](N[*:1])C(=O)[*:2]; Val(3-OH) = CC(C)(O)[C@H](N)C(=O)O; 3Pal = N[C@@H](Cc1cccnc1)C(=O)O; 4Pal = N[C@@H](Cc1ccncc1)C(=O)O; Cha = N[C@@H](CC1CCCCC1)C(=O)O; Chg = N[C@H](C(=O)O)C1CCCCC1; Carboxymethyl = O=C(O)C*; NMeA = CN[C@@H](C)C(=O)O; Aun = NCCCCCCCCCCC(=O)O; Dab = NCC[C@H](N)C(=O)O; Abu = CC[C@H](N)C(=O)O

biological target: T1, PD-1/PD-L1 interaction (PE-labeled human PD-L1-Ig binding to Jurkat cell line over-expressing human PD-1) (Homo sapiens, UniProt Q15116); experiment: Jurkat-PD-1 Cell Binding High-Content Screening Assay (CBA); conditions: Jurkat-hPD-1 cells, PE-labeled PD-L1-Ig 20 nM final; read-out: Jurkat HPD1 PDL1 IC50
T1 construct: expressed in transfected cells; host or cells: Jurkat
In short: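 High-content imaging read-out of PE-PD-L1-Ig binding (20 nM final, 1 h) to Jurkat-hPD-1 cells, after 2 h compound exposure at 37 °C in DMEM with 10% FCS. Nuclei counterstained with Hoechst 33342 after paraformaldehyde fixation.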

T1 sequence (Q15116 25-288): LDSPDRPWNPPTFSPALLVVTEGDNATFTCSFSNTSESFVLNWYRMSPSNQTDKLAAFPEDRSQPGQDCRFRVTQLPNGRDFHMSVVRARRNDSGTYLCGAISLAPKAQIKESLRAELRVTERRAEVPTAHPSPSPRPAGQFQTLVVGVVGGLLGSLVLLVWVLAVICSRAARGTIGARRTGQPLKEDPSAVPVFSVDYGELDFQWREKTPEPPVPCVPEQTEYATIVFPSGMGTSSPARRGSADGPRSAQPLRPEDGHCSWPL

Row | SMILES | IC50
1 | CC[C@H](C)[C@@H]1NC(=O)[C@H](Cc2cccc(C)c2)NC(=O)[C@H](CC(=O)O)NC(=O)[C@H](Cc2ccc(C(=O)O)cc2)NC(=O)[C@H](CCN)NC(=O)CSC[C@@H](C(=O)N[C@@H](CCN)C(=O)NCCCCCCCCCCC(=O)O)NC(=O)[C@H](CO)NC(=O)[C@H](C(C)(C)O)NC(=O)[C@H](CC2CCCCC2)NC(=O)[C@H](CCN)NC(=O)[C@@H](CC(C)C)NC(=O)[C@H](C)N(C)C(=O)[C@H](Cc2ccc(OCC(=O)O)cc2)NC(=O)[C@H](Cc2ccc(-c3ccccc3)cc2)NC1=O [Example 1299] ({CH2CO}-[Dab][Phe(4-COOH)]D[Phe(3-Me)]I[Bip]Y(Carboxymethyl)[NMeA][dL][Dab][Cha][Val(3-OH)]SC[Dab][Aun]-OH; thioether N-14) | 0.0116 µM
2 | Cc1cccc(C[C@@H]2NC(=O)[C@H](CC(=O)O)NC(=O)[C@H](Cc3ccc(C(=O)O)cc3)NC(=O)[C@H](CCN)NC(=O)CSC[C@@H](C(=O)N[C@@H](CCN)C(=O)NCCCCCCCCCCC(=O)O)NC(=O)[C@H](CO)NC(=O)[C@H](C(C)(C)O)NC(=O)[C@H](CC3CCCCC3)NC(=O)[C@H](CCN)NC(=O)[C@@H](CC(C)C)NC(=O)[C@H](C)N(C)C(=O)[C@H](Cc3ccc(OCC(=O)O)cc3)NC(=O)[C@H](Cc3ccc(-c4ccccc4)cc3)NC(=O)[C@H](Cc3ccc(C#N)cc3)NC2=O)c1 [Example 1300] ({CH2CO}-[Dab][Phe(4-COOH)]D[Phe(3-Me)][Phe(4-CN)][Bip]Y(Carboxymethyl)[NMeA][dL][Dab][Cha][Val(3-OH)]SC[Dab][Aun]-OH; thioether N-14) | 0.0215 µM
3 | Cc1ccc(C[C@@H]2NC(=O)[C@H](Cc3cccc(C)c3)NC(=O)[C@H](CC(=O)O)NC(=O)[C@H](Cc3ccc(C(=O)O)cc3)NC(=O)[C@H](CCN)NC(=O)CSC[C@@H](C(=O)N[C@@H](CCN)C(=O)NCCCCCCCCCCC(=O)O)NC(=O)[C@H](CO)NC(=O)[C@H](C(C)(C)O)NC(=O)[C@H](CC3CCCCC3)NC(=O)[C@H](CCN)NC(=O)[C@@H](CC(C)C)NC(=O)[C@H](C)N(C)C(=O)[C@H](Cc3ccc(OCC(=O)O)cc3)NC(=O)[C@H](Cc3ccc(-c4ccccc4)cc3)NC2=O)cc1 [Example 1301] ({CH2CO}-[Dab][Phe(4-COOH)]D[Phe(3-Me)][Phe(4-Me)][Bip]Y(Carboxymethyl)[NMeA][dL][Dab][Cha][Val(3-OH)]SC[Dab][Aun]-OH; thioether N-14) | 0.0269 µM
4 | Cc1cccc(C[C@@H]2NC(=O)[C@H](CC(=O)O)NC(=O)[C@H](Cc3ccc(C(=O)O)cc3)NC(=O)[C@H](CCN)NC(=O)CSC[C@@H](C(=O)N[C@@H](CCN)C(=O)NCCCCCCCCCCC(=O)O)NC(=O)[C@H](CO)NC(=O)[C@H](C(C)(C)O)NC(=O)[C@H](CC3CCCCC3)NC(=O)[C@H](CCN)NC(=O)[C@@H](CC(C)C)NC(=O)[C@H](C)N(C)C(=O)[C@H](Cc3ccc(OCC(=O)O)cc3)NC(=O)[C@H](Cc3ccc(-c4ccccc4)cc3)NC(=O)[C@H](C3CCCCC3)NC2=O)c1 [Example 1302] ({CH2CO}-[Dab][Phe(4-COOH)]D[Phe(3-Me)][Chg][Bip]Y(Carboxymethyl)[NMeA][dL][Dab][Cha][Val(3-OH)]SC[Dab][Aun]-OH; thioether N-14) | 0.0176 µM
5 | CC(C)=C[C@@H]1NC(=O)[C@H](Cc2cccc(C)c2)NC(=O)[C@H](CC(=O)O)NC(=O)[C@H](Cc2ccc(C(=O)O)cc2)NC(=O)[C@H](CCN)NC(=O)CSC[C@@H](C(=O)N[C@@H](CCN)C(=O)NCCCCCCCCCCC(=O)O)NC(=O)[C@H](CO)NC(=O)[C@H](C(C)(C)O)NC(=O)[C@H](CC2CCCCC2)NC(=O)[C@H](CCN)NC(=O)[C@@H](CC(C)C)NC(=O)[C@H](C)N(C)C(=O)[C@H](Cc2ccc(OCC(=O)O)cc2)NC(=O)[C@H](Cc2ccc(-c3ccccc3)cc2)NC1=O [Example 1303] ({CH2CO}-[Dab][Phe(4-COOH)]D[Phe(3-Me)][X2][Bip]Y(Carboxymethyl)[NMeA][dL][Dab][Cha][Val(3-OH)]SC[Dab][Aun]-OH; thioether N-14) | 0.0267 µM
6 | Cc1cccc(C[C@@H]2NC(=O)[C@H](CC(=O)O)NC(=O)[C@H](Cc3cn(CC(=O)O)c4ccccc34)NC(=O)[C@H]([C@@H](C)O)NC(=O)CSC[C@@H](C(=O)N[C@@H](CCN)C(=O)NCCCCCCCCCCC(=O)O)NC(=O)[C@H]([C@@H](C)O)NC(=O)[C@H](C(C)C)NC(=O)[C@H](CC3CCCCC3)NC(=O)[C@H](CCN)NC(=O)[C@@H](CC(C)C)NC(=O)[C@H](C)N(C)C(=O)[C@H](Cc3ccc(OCC(=O)O)cc3)NC(=O)[C@H](Cc3ccc(-c4ccccc4)cc3)NC(=O)[C@H](Cc3ccc(OCC(=O)O)cc3)NC2=O)c1 [Example 1304] ({CH2CO}-T[Trp(1-CH2COOH)]D[Phe(3-Me)]Y(Carboxymethyl)[Bip]Y(Carboxymethyl)[NMeA][dL][Dab][Cha]VTC[Dab][Aun]-OH; thioether N-14) | 0.0446 µM
7 | Cc1cccc(C[C@@H]2NC(=O)[C@H](CC(=O)O)NC(=O)[C@H](Cc3ccc(OCC(=O)O)cc3)NC(=O)[C@H](CCN)NC(=O)CSC[C@@H](C(=O)N[C@@H](CCN)C(=O)NCCCCCCCCCCC(=O)O)NC(=O)[C@H](CO)NC(=O)[C@H](C(C)(C)O)NC(=O)[C@H](CC3CCCCC3)NC(=O)[C@H](CCN)NC(=O)[C@@H](CC(C)C)NC(=O)[C@H](C)N(C)C(=O)[C@H](Cc3ccc(OCC(=O)O)cc3)NC(=O)[C@H](Cc3ccc(-c4ccccc4)cc3)NC(=O)[C@H](Cc3cccnc3)NC2=O)c1 [Example 1305] ({CH2CO}-[Dab]Y(Carboxymethyl)D[Phe(3-Me)][3Pal][Bip]Y(Carboxymethyl)[NMeA][dL][Dab][Cha][Val(3-OH)]SC[Dab][Aun]-OH; thioether N-14) | 0.0248 µM
8 | Cc1cccc(C[C@@H]2NC(=O)[C@H](CC(=O)O)NC(=O)[C@H](Cc3ccc(OCC(=O)O)cc3)NC(=O)[C@H](CCN)NC(=O)CSC[C@@H](C(=O)N[C@@H](CCN)C(=O)NCCCCCCCCCCC(=O)O)NC(=O)[C@H](CO)NC(=O)[C@H](C(C)(C)O)NC(=O)[C@H](CC3CCCCC3)NC(=O)[C@H](CCN)NC(=O)[C@@H](CC(C)C)NC(=O)[C@H](C)N(C)C(=O)[C@H](Cc3ccc(OCC(=O)O)cc3)NC(=O)[C@H](Cc3ccc(-c4ccccc4)cc3)NC(=O)[C@H](Cc3cccc(C#N)c3)NC2=O)c1 [Example 1306] ({CH2CO}-[Dab]Y(Carboxymethyl)D[Phe(3-Me)][Phe(3-CN)][Bip]Y(Carboxymethyl)[NMeA][dL][Dab][Cha][Val(3-OH)]SC[Dab][Aun]-OH; thioether N-14) | 0.0239 µM
9 | Cc1cccc(C[C@@H]2NC(=O)[C@H](CC(=O)O)NC(=O)[C@H](Cc3ccc(OCC(=O)O)cc3)NC(=O)[C@H](CCN)NC(=O)CSC[C@@H](C(=O)N[C@@H](CCN)C(=O)NCCCCCCCCCCC(=O)O)NC(=O)[C@H](CO)NC(=O)[C@H](C(C)(C)O)NC(=O)[C@H](CC3CCCCC3)NC(=O)[C@H](CCN)NC(=O)[C@@H](CC(C)C)NC(=O)[C@H](C)N(C)C(=O)[C@H](Cc3ccc(OCC(=O)O)cc3)NC(=O)[C@H](Cc3ccc(-c4ccccc4)cc3)NC(=O)[C@H](Cc3ccc(N)cc3)NC2=O)c1 [Example 1307] ({CH2CO}-[Dab]Y(Carboxymethyl)D[Phe(3-Me)][Phe(4-NH2)][Bip]Y(Carboxymethyl)[NMeA][dL][Dab][Cha][Val(3-OH)]SC[Dab][Aun]-OH; thioether N-14) | 0.0413 µM
10 | CC[C@@H]1NC(=O)[C@H](Cc2cccc(C)c2)NC(=O)[C@H](CC(=O)O)NC(=O)[C@H](Cc2ccc(OCC(=O)O)cc2)NC(=O)[C@H](CCN)NC(=O)CSC[C@@H](C(=O)N[C@@H](CCN)C(=O)NCCCCCCCCCCC(=O)O)NC(=O)[C@H](CO)NC(=O)[C@H](C(C)(C)O)NC(=O)[C@H](CC2CCCCC2)NC(=O)[C@H](CCN)NC(=O)[C@@H](CC(C)C)NC(=O)[C@H](C)N(C)C(=O)[C@H](Cc2ccc(OCC(=O)O)cc2)NC(=O)[C@H](Cc2ccc(-c3ccccc3)cc2)NC1=O [Example 1308] ({CH2CO}-[Dab]Y(Carboxymethyl)D[Phe(3-Me)][Abu][Bip]Y(Carboxymethyl)[NMeA][dL][Dab][Cha][Val(3-OH)]SC[Dab][Aun]-OH; thioether N-14) | 0.007 µM
11 | Cc1cccc(C[C@@H]2NC(=O)[C@H](CC(=O)O)NC(=O)[C@H](Cc3ccc(C(=O)O)cc3)NC(=O)[C@H](Cc3ccncc3)NC(=O)CSC[C@@H](C(=O)N[C@@H](CCN)C(=O)NCCCCCCCCCCC(=O)O)NC(=O)[C@H](CO)NC(=O)[C@H](C(C)(C)O)NC(=O)[C@H](CC3CCCCC3)NC(=O)[C@H](CCN)NC(=O)[C@@H](CC(C)C)NC(=O)[C@H](C)N(C)C(=O)[C@H](Cc3ccc(OCC(=O)O)cc3)NC(=O)[C@H](Cc3ccc(-c4ccccc4)cc3)NC(=O)[C@H](Cc3cccc(F)c3)NC2=O)c1 [Example 1309] ({CH2CO}-[4Pal][Phe(4-COOH)]D[Phe(3-Me)][Phe(3-F)][Bip]Y(Carboxymethyl)[NMeA][dL][Dab][Cha][Val(3-OH)]SC[Dab][Aun]-OH; thioether N-14) | 0.0127 µM
12 | Cc1cccc(C[C@@H]2NC(=O)[C@H](CC(=O)O)NC(=O)[C@H](Cc3ccc(OCC(=O)O)cc3)NC(=O)[C@H](CCN)NC(=O)CSC[C@@H](C(=O)N[C@@H](CCN)C(=O)NCCCCCCCCCCC(=O)O)NC(=O)[C@H](CO)NC(=O)[C@H](C(C)(C)O)NC(=O)[C@H](CC3CCCCC3)NC(=O)[C@H](CCN)NC(=O)[C@@H](CC(C)C)NC(=O)[C@H](C)N(C)C(=O)[C@H](Cc3ccc(OCC(=O)O)cc3)NC(=O)[C@H](Cc3ccc(-c4ccccc4)cc3)NC(=O)[C@H](Cc3cccc(F)c3)NC2=O)c1 [Example 1310] ({CH2CO}-[Dab]Y(Carboxymethyl)D[Phe(3-Me)][Phe(3-F)][Bip]Y(Carboxymethyl)[NMeA][dL][Dab][Cha][Val(3-OH)]SC[Dab][Aun]-OH; thioether N-14) | 0.0306 µM
